Where two headings read alike, the source gives them in different places.

Among the data in US10280163B2 (BeiGene, Ltd., priority 2015, dated 2019) are IC50 and EC50 values, retold here.

Experiment [1] deals with T1, Recombinant IDO1 (Homo sapiens, UniProt P14902).
T1 construct: His tag (N); made in house; host or cells: E. coli
Briefly: IDO1 enzymatic assay. In kind it is biochemical. In outline:
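N-terminally His-tagged enzyme from E. coli (50 nM) was incubated with compound, 1.3 mM D-tryptophan, 5 mM ascorbate, 6.25 μM methylene blue and 0.4 mg/mL catalase in 50 mM potassium phosphate pH 7.5, 0.1% BSA for 1.5 h at 24° C. N′-formylkynurenine formation was followed at 321 nm for 1 h; IC50 from rate slopes.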

Experiment [2] has as its target T2, cellular IDO1 in HeLa cells (Homo sapiens, UniProt P14902).
T2 construct: endogenous in cells; host or cells: HeLa cells (American Type Tissue Culture Collection), induced with human recombinant IFN-γ
Briefly: HeLa cell-based IDO1 Kyn (kynurenine) production assay. The note with it: Table 1, 5-substituted imidazo[1,5-a]pyridines, IFN-γ 100 ng/mL, 48 hours. In outline:
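IFN-γ-induced HeLa cells (100 ng/mL) in phenol red-free DMEM with 0.4 mM L-Trp, compounds added together with IFN-γ, 48 h at 37 °C. Supernatant Kyn read at 480 nm after TCA precipitation and 4-(dimethylamino)benzaldehyde reaction. IC50 from four-parameter logistic fit.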

Experiment [3] concerns the target T3, Recombinant TDO (Homo sapiens, UniProt P48775).
T3 construct: His tag (C); made in house; host or cells: E. coli
As to the kind of experiment: TDO enzymatic assay. In kind it is biochemical. As to the method: Recombinant TDO was overexpressed and purified from E. coli cells with a C-terminal His tag. TDO enzymatic assay was performed using the same methodology as IDO1 enzymatic assay except that 100 nM TDO and 0.5 mM L-tryptophan (Km concentration) were used in the TDO assay.

Where [4] appears, read: Table 1, 5-substituted imidazo[1,5-a]pyridines, 50 nM IDO1, 1.3 mM D-tryptophan, read-out: Enzyme IC50 (nM) IDO1.
Where [5] appears, read: Table 1, 5-substituted imidazo[1,5-a]pyridines, 100 nM TDO, 0.5 mM L-tryptophan, read-out: Enzyme IC50 (nM) TDO.
The mark [6] stands for this setting: selectivity examples, read-out: enzymatic IC50 value to IDO1.
Setting [7] is: selectivity examples, read-out: enzymatic IC50 value to TDO.

T3 sequence (P48775 whole entry): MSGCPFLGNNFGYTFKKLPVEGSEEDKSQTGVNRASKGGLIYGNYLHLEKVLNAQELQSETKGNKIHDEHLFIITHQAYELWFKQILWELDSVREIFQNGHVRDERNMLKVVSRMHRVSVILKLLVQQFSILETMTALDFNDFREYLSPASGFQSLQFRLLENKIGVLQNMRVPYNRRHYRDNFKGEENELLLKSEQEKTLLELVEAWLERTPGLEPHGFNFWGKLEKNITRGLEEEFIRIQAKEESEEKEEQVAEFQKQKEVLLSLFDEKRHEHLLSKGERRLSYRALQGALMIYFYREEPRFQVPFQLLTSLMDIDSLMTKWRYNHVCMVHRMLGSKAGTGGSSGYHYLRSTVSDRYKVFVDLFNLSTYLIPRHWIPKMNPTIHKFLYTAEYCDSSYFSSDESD
T2 sequence (P14902 whole entry): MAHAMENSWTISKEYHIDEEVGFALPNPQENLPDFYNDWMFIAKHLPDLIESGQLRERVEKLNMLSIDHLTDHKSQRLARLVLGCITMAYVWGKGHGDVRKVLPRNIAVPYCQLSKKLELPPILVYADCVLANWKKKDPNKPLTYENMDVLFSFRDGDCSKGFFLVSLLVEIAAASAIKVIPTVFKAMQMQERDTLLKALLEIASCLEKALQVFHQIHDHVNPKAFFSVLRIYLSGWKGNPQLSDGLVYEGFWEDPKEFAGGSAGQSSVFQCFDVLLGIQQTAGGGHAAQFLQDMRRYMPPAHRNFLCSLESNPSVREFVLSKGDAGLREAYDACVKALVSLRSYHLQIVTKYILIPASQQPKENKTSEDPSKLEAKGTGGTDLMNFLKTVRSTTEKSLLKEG
T1 sequence (P14902 whole entry): as above

Take `OC(c1cc(C2CC2)cc2cncn12)C1CCCCC1` (stereo not drawn) [Example A108, cyclohexyl(7-cyclopropylimidazo[1,5-a]pyridin-5-yl)methanol 2,2,2-trifluoroacetate]: the IC50 (as a rule, the midpoint of a concentration-inhibition curve) in experiment [1] (setting [4]) is 36 nM; in experiment [3] (setting [5]), 150 nM. Besides, the concentration giving a half-maximal response (EC50) (usually the concentration needed to bring the measured effect to its halfway point) in experiment [2] was found to be 4440 nM.

For the compound `OC(c1cc(C(F)(F)F)cc2cncn12)C1CCCCC1` (stereo not drawn) [Example A109, cyclohexyl(7-(trifluoromethyl)imidazo[1,5-a]pyridin-5-yl)methanol], the values for the IC50 in experiment [1] (setting [4]) and in experiment [3] (setting [5]) were 49 nM and 110 nM, respectively. In experiment [2], a half-maximal response (EC50) required 1540 nM.

Take `OC(c1cc(C(F)(F)F)cc2cncn12)C1CCCC1` (stereo not drawn) [Example A110, Cyclopentyl(7-(trifluoromethyl)imidazo[1,5-a]pyridin-5-yl)methanol]: the IC50 in experiment [1] (setting [4]) was 66 nM; in experiment [3] (setting [5]), 120 nM. For the same compound, in experiment [2], the EC50 was 2090 nM.

As to `OC(c1cc(Br)cc2cncn12)C1CCCCC1` (stereo not drawn) [Example A111, (7-bromoimidazo[1,5-a]pyridin-5-yl)(cyclohexyl)methanol], the values for the IC50 in experiment [1] (setting [4]) and in experiment [3] (setting [5]) were 25 nM and 63 nM, respectively. Moreover, the EC50 in experiment [2] amounted to 962 nM.

Take `OC(c1cc(Br)cc2cncn12)C1CCCC1` (stereo not drawn) [Example A112, (7-bromoimidazo[1,5-a]pyridin-5-yl)(cyclopentyl)methanol]: the IC50 came out at 24 nM in experiment [1] (setting [4]) and 48 nM in experiment [3] (setting [5]). In addition, in experiment [2], the midpoint of the response, the EC50, lay at 1040 nM.

Turning to `OC(CCC1CCCCC1)c1cc(Cl)cc2cncn12` (stereo not drawn) [Example A113, 1-(7-chloroimidazo[1,5-a]pyridin-5-yl)-3-cyclohexylpropan-1-ol], the values for the IC50 in experiment [1] (setting [4]) and in experiment [3] (setting [5]) were 26 nM and 1100 nM, respectively. In addition, in experiment [2], the EC50 was determined as 3220 nM.

For the compound `OC(c1cc(C(F)(F)F)cc2cncn12)C1CCCCCC1` (stereo not drawn) [Example A115, cycloheptyl(7-(trifluoromethyl)imidazo[1,5-a]pyridin-5-yl)methanol], the figures for the IC50 in experiment [1] (setting [4]) and in experiment [3] (setting [5]) were 180 nM and 320 nM, respectively. The EC50 in experiment [2] amounted to 3160 nM.

Consider `OC(c1c(Cl)ccc2cncn12)C1CCCCC1` (stereo not drawn) [Example A116, (6-chloroimidazo[1,5-a]pyridin-5-yl)(cyclohexyl)methanol], for which the half-inhibitory concentration (IC50) in experiment [1] (setting [4]) came to 7.5 nM; in experiment [3] (setting [5]), 270 nM. The same compound yielded an EC50 in experiment [2] of 231 nM.

Take `OC(CC1CCCCC1)c1c(Cl)ccc2cncn12` (stereo not drawn) [Example A117, 1-(6-chloroimidazo[1,5-a]pyridin-5-yl)-2-cyclohexylethan-1-ol]: the IC50 in experiment [1] (setting [6]) is 28 nM; in experiment [3] (setting [7]), 9700 nM. Further, the EC50 in experiment [2] was found to be 143 nM.

In the case of `OC(c1c(Br)ccc2cncn12)C1CCCCC1` (stereo not drawn) [Example A118, (6-bromoimidazo[1,5-a]pyridin-5-yl)(cyclohexyl)methanol], the IC50 in experiment [1] (setting [4]) amounted to 15 nM; in experiment [3] (setting [5]), 5700 nM. Moreover, in experiment [2], a half-maximal response (EC50) required 420 nM.

For the compound `OC(CC1CCCCC1)c1c(Br)ccc2cncn12` (stereo not drawn) [Example A119, 1-(6-bromoimidazo[1,5-a]pyridin-5-yl)-2-cyclohexylethan-1-ol], the figures for the IC50 in experiment [1] (setting [6]) and in experiment [3] (setting [7]) were 22 nM and 12000 nM, respectively. Besides, in experiment [2], a half-maximal response (EC50) required 511 nM.

`OC(c1c(Br)ccc2cncn12)C1CCCC1` (stereo not drawn) [Example A120, (6-bromoimidazo[1,5-a]pyridin-5-yl)(cyclopentyl)methanol]: the figures for the IC50 in experiment [1] (setting [4]) and in experiment [3] (setting [5]) were 37 nM and 3700 nM, respectively. Moreover, the concentration for a half-maximal effect (EC50) in experiment [2] is 1410 nM.

As to `Cc1ccc2cncn2c1C(O)C1CCCCC1` (stereo not drawn) [Example A122, cyclohexyl(6-methylimidazo[1,5-a]pyridin-5-yl)methanol], the figures for the IC50 in experiment [1] (setting [4]) and in experiment [3] (setting [5]) were 28 nM and 430 nM, respectively. Also, the EC50 in experiment [2] was determined as 268 nM.

For `C#Cc1ccc2cncn2c1C(O)C1CCCCC1` (stereo not drawn) [Example A123, cyclohexyl(6-ethynylimidazo[1,5-a]pyridin-5-yl)methanol], the IC50 in experiment [1] (setting [4]) turned out to be 19 nM; in experiment [3] (setting [5]) it was 7900 nM. In experiment [2], the EC50 was 556 nM.

As to `OC(CC1CCCCC1)c1c(I)ccc2cncn12` (stereo not drawn) [Example A124, 2-cyclohexyl-1-(6-iodoimidazo[1,5-a]pyridin-5-yl)ethan-1-ol], the IC50 came to 19 nM in experiment [1] (setting [4]) and 8700 nM in experiment [3] (setting [5]). For the same compound, it took 275 nM to reach a half-maximal effect in experiment [2] (EC50).

Take `OC(c1c(I)ccc2cncn12)C1CCCCC1` (stereo not drawn) [Example A125, cyclohexyl(6-iodoimidazo[1,5-a]pyridin-5-yl)methanol]: the IC50 worked out at 31 nM in experiment [1] (setting [4]) and 5600 nM in experiment [3] (setting [5]). For the same compound, the concentration giving a half-maximal response (EC50) in experiment [2] is 205 nM.

Consider `OC(c1c(C(F)(F)F)ccc2cncn12)C1CCCCC1` (stereo not drawn) [Example A126, cyclohexyl(6-(trifluoromethyl)imidazo[1,5-a]pyridine-5-yl)methanol], for which the IC50 in experiment [1] (setting [4]) is 65 nM; in experiment [3] (setting [5]), 3100 nM. In experiment [2], the EC50 was 291 nM.

Take `OC(CC1CCCCC1)c1c(C(F)(F)F)ccc2cncn12` (stereo not drawn) [Example A127, 2-cyclohexyl-1-(6-(trifluoromethyl)imidazo[1,5-a]pyridine-5-yl)ethan-1-ol]: the IC50 in experiment [1] (setting [4]) amounted to 44 nM; in experiment [3] (setting [5]), 3500 nM. The same compound registered an EC50 in experiment [2] of 165 nM.

On to `OC(CCC1CCCCC1)c1c(Cl)ccc2cncn12` (stereo not drawn) [Example A128, 1-(6-chloroimidazo[1,5-a]pyridin-5-yl)-3-cyclohexylpropan-1-ol], for which the values for the IC50 in experiment [1] (setting [4]) and in experiment [3] (setting [5]) were 46 nM and 1100 nM, respectively. Also, the response in experiment [2] was half-maximal at 2160 nM (EC50).

`OC(c1c(C2CC2)ccc2cncn12)C1CCCCC1` (stereo not drawn) [Example A129, cyclohexyl(6-cyclopropylimidazo[1,5-a]pyridin-5-yl)methanol]: the IC50 was determined as 30 nM in experiment [1] (setting [4]) and 4700 nM in experiment [3] (setting [5]). Besides, the EC50 in experiment [2] was 69.5 nM.

In the case of `OC(c1c(-c2ccccc2)ccc2cncn12)C1CCCCC1` (stereo not drawn) [Example A130, cyclohexyl(6-phenylimidazo[1,5-a]pyridin-5-yl)methanol], the IC50 in experiment [1] (setting [4]) was determined as 850 nM; in experiment [3] (setting [5]), 1700 nM. In experiment [2], this compound yielded an EC50 of 9150 nM.

Regarding `COc1ccc2cncn2c1C(O)C1CCCCC1` (stereo not drawn) [Example A131, cyclohexyl(6-methoxyimidazo[1,5-a]pyridin-5-yl)methanol], the results for the IC50 in experiment [1] (setting [4]) and in experiment [3] (setting [5]) were 28 nM and 4100 nM, respectively. The compound further showed an EC50 in experiment [2] of 939 nM.

Consider `OC(c1c(C(F)(F)F)ccc2cncn12)C1CCCC1` (stereo not drawn) [Example A133, cyclopentyl(6-(trifluoromethyl)imidazo[1,5-a]pyridin-5-yl)methanol], for which the IC50 in experiment [1] (setting [4]) is 58 nM; in experiment [3] (setting [5]), 36000 nM. Besides, the EC50 in experiment [2] was 2040 nM.

Consider `OC(c1c(I)ccc2cncn12)C1CC1` (stereo not drawn) [Example A134, cyclopropyl(6-iodoimidazo[1,5-a]pyridin-5-yl)methanol], for which the IC50 in experiment [1] (setting [4]) came to 59 nM; in experiment [3] (setting [5]) it was 26000 nM. Also, in experiment [2], a half-maximal effect (EC50) was put at 8610 nM.

For the compound `CC(C)c1ccc2cncn2c1C(O)C1CCCCC1` (stereo not drawn) [Example A135, cyclohexyl(6-isopropylimidazo[1,5-a]pyridin-5-yl)methanol], the IC50 in experiment [1] (setting [4]) was found to be 39 nM; in experiment [3] (setting [5]), 2700 nM. The compound further displayed an EC50 in experiment [2] of 54 nM.

On to `C=C(C)c1ccc2cncn2c1C(O)C1CCCCC1` (stereo not drawn) [Example A136, cyclohexyl(6-(prop-1en-2-yl)imidazo[1,5-a]pyridin-5-yl)methanol], for which the IC50 in experiment [1] (setting [4]) came to 30 nM; in experiment [3] (setting [5]), 3300 nM. This compound came in with an EC50 in experiment [2] of 1610 nM.

As to `OC(c1c(C2CC2)ccc2cncn12)C1CCCC1` (stereo not drawn) [Example A138, cyclopentyl(6-cyclopropylimidazo[1,5-a]pyridin-5-yl)methanol], the results for the IC50 in experiment [1] (setting [4]) and in experiment [3] (setting [5]) were 25 nM and 6600 nM, respectively. Also, the EC50 in experiment [2] came to 418 nM.

Turning to `OC(CC1CCCCC1)c1c(C2CC2)ccc2cncn12` (stereo not drawn) [Example A139], the IC50 in experiment [1] (setting [4]) worked out at 35 nM; in experiment [3] (setting [5]), 2400 nM. The EC50 in experiment [2] was 435 nM.

Consider `Cc1noc(C)c1-c1ccc2cncn2c1C(O)C1CCCCC1` (stereo not drawn) [Example A140, cyclohexyl(6-(3,5-dimethylisoxazol-4-yl)imidazo[1,5-a]pyridin-5-yl)methanol], for which the figures for the IC50 in experiment [1] (setting [4]) and in experiment [3] (setting [5]) were 10000 nM and 17000 nM, respectively. This compound gave an EC50 in experiment [2] of 7810 nM.

On to `OC1CCCCC1C(O)c1c(C2CC2)ccc2cncn12` (stereo not drawn) [Example A141, 2-((6-cyclopropylimidazo[1,5-a]pyridin-5-yl)(hydroxy)methyl)cyclohexan-1-ol], for which the IC50 in experiment [1] (setting [4]) came to 51 nM; in experiment [3] (setting [5]), 3900 nM. The compound further displayed an EC50 in experiment [2] of 3150 nM.

With `OC1CCC(C(O)c2c(C3CC3)ccc3cncn23)CC1` (stereo not drawn) [Example A142, 4-((6-cyclopropylimidazo[1,5-a]pyridin-5-yl)(hydroxy)methyl)cyclohexan-1-ol], the IC50 in experiment [1] (setting [4]) is 130 nM; in experiment [3] (setting [5]) it was 64000 nM. Besides, the EC50 in experiment [2] was found to be 574 nM.

Regarding `OC(c1c(Cl)c(Cl)cc2cncn12)C1CCCCC1` (stereo not drawn) [Example A143, cyclohexyl(6,7-dichloroimidazo[1,5-a]pyridin-5-yl)methanol], the IC50 worked out at 15 nM in experiment [1] (setting [4]) and 270 nM in experiment [3] (setting [5]). Moreover, the response in experiment [2] was half-maximal at 1110 nM (EC50).
